Patent US20080287398A1, “COLD MENTHOL RECEPTOR-1 ANTAGONISTS” (priority 2007, published 2008)
Several values for one entry are separate records, joined by “and”; a condition that tells them apart may be missing. Equal values may be shown once.

target: T1, canine TRPM8 (Canis lupus familiaris, UniProt Q1A7N1); test: In vitro canine TRPM8 functional assay (Ca2+-sensitive dye, FLIPR/FDSS, icilin activation); assay type: cell-based; details: 0.5 μM compound; HEK293 cells expressing canine TRPM8, icilin activation
T1 construct: expressed in transfected cells
Procedure: The functional activity of compounds of Formula (I) was determined by measuring changes in intracellular calcium concentration using a Ca^2+-sensitive fluorescent dye. The changes in fluorescent signal were monitored by a fluorescence plate reader, either a FLIPR™ (Molecular Devices) or FDSS (Hamamatsu).
HEK293 cells stably expressing canine TRPM8 were routinely grown as monolayers in Dulbecco's minimum essential medium supplemented with 10% FBS, 1 mM L-glutamine, 100 units/mL penicillin, 100 ug/mL streptomycin and 400 μg/mL G418. Cells were maintained in 5% CO2 at 37° C. At 24 hrs prior to assay, cells were seeded in clear-base poly-D-lysine coated 384-well plates (BD Biosciences, NJ, USA) at a density of 5,000 cells per well in culture medium and grown overnight in 5% CO2 at 37° C. On assay day, growth media was removed and cells were loaded with Calcium 3 Dye (Molecular Devices) for 35 min at 37° C., under 5% CO2 and then for 25 min at room temperature and atmosphere. Subsequently, cells were tested for agonist-induced increases in intracellular Ca^2+ levels using FLIPR™ or FDSS. Cells were challenged with a compound of Formula (I) (at varying concentrations) and intracellular Ca^2+ was measured for 5 min prior to the addition of icilin to all wells to achieve a final concentration which produces approximately an 80% maximal response.
Basal FI was subtracted prior to normalizing data to percent of maximal response. Curves were generated using the average of quadruplicate wells for each data point, were analyzed using nonlinear regression of either sigmoidal dose response or sigmoidal dose response (variable slope). Finally, the EC50 and IC50 values were calculated with the best-fit dose curve determined by GraphPad Prism.

T1 sequence (Q1A7N1 1-1104): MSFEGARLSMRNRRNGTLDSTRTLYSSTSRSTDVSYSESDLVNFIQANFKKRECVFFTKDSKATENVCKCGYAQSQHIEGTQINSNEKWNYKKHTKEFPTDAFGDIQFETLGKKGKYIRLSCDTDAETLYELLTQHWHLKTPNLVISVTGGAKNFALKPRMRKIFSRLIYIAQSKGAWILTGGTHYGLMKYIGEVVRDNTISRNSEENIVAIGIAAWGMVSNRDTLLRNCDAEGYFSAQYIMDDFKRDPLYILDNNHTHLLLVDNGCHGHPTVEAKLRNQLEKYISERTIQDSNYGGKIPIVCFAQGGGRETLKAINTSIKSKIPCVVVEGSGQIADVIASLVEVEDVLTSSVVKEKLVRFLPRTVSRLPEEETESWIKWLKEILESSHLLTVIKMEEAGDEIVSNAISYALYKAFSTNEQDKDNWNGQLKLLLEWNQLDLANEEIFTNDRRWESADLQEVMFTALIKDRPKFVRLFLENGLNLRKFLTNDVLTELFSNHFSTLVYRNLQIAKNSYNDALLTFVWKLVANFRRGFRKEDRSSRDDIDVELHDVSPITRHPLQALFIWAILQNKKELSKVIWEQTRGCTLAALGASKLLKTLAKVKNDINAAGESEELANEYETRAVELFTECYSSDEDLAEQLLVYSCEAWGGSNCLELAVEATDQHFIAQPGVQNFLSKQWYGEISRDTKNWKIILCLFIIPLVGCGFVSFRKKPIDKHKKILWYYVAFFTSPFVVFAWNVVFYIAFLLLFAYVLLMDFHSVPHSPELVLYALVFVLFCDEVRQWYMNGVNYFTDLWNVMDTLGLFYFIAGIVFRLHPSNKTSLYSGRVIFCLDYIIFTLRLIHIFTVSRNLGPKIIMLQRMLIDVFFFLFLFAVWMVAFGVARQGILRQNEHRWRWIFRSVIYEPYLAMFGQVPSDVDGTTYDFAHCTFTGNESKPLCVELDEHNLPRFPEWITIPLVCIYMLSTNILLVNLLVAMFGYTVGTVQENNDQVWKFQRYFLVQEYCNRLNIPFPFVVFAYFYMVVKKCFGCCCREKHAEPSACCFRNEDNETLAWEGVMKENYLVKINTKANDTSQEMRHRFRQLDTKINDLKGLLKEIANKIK

SMILES	% I (0.5 μM)
CCOP(=O)(OCC)C(Cc1cccc(Cl)c1F)c1sc2ccccc2c1Br (racemic) [Cpd 143]	101%
CCOP(=O)(OCC)C(Cc1ccc(C(F)(F)F)c(F)c1)c1sc2ccccc2c1Br (racemic) [Cpd 144]	101%
CCOP(=O)(OCC)C(Cc1cccc(OC(F)(F)F)c1)c1sc2ccccc2c1Br (racemic) [Cpd 145]	103% and 102%
CCOP(=O)(OCC)C(Cc1cc(C(F)(F)F)ccc1F)c1sc2ccccc2c1Br (racemic) [Cpd 146]	103%
CCOP(=O)(OCC)C(Cc1ccccc1Cl)c1sc2ccccc2c1Br (racemic) [Cpd 147]	103%
CCOP(=O)(OCC)C(Cc1cc(C(F)(F)F)ccc1Cl)c1sc2ccccc2c1Br (racemic) [Cpd 148]	103%
CCOP(=O)(OCC)C(Cc1ccc(OC(F)(F)F)c(Cl)c1)c1sc2ccccc2c1Br (racemic) [Cpd 149]	103%
CCOP(=O)(OCC)C(Cc1ccc(C(F)(F)F)cc1F)c1sc2ccccc2c1Br (racemic) [Cpd 150]	103%
CCOP(=O)(OCC)C(Cc1cccc(C(F)(F)F)c1Cl)c1sc2ccccc2c1Br (racemic) [Cpd 151]	103%
CCOP(=O)(OCC)C(Cc1ccc(OC)c(C(F)(F)F)c1)c1sc2ccccc2c1Br (racemic) [Cpd 152]	102% and 92%
CCOP(=O)(OCC)C(Cc1ccc(SC(F)(F)F)cc1)c1sc2ccccc2c1Br (racemic) [Cpd 153]	103%
CCOP(=O)(OCC)C(Cc1ccc(C(F)(F)F)cc1)c1sc2ccccc2c1Br (racemic) [Cpd 154]	103%
COc1cc(CC(c2sc3ccccc3c2Br)P(=O)(OC(C)C)OC(C)C)ccc1F (racemic) [Cpd 157]	103% and 98%
CCOP(=O)(OCC)C(Cc1ccc(OC)c(F)c1)c1sc2ccccc2c1Br (racemic) [Cpd 158]	101%
COc1ccc(CC(c2sc3ccccc3c2Br)P(=O)(OC(C)C)OC(C)C)cc1F (racemic) [Cpd 159]	103%
CCOP(=O)(OCC)C(Cc1c(F)c(F)c(OC)c(F)c1F)c1sc2ccccc2c1Br (racemic) [Cpd 160]	87%
COc1c(F)c(F)c(CC(c2sc3ccccc3c2Br)P(=O)(OC(C)C)OC(C)C)c(F)c1F (racemic) [Cpd 161]	103%
CCOP(=O)(OCC)C(Cc1cccc(OC)c1F)c1sc2ccccc2c1Br (racemic) [Cpd 162]	103%
COc1ccc(CC(c2sc3ccccc3c2Br)P(=O)(OC(C)C)OC(C)C)c(F)c1 (racemic) [Cpd 163]	103%
CCOP(=O)(OCC)C(Cc1cc(OC)c(Cl)cc1F)c1sc2ccccc2c1Br (racemic) [Cpd 164]	94%
COc1cc(CC(c2sc3ccccc3c2Br)P(=O)(OC(C)C)OC(C)C)c(F)cc1Cl (racemic) [Cpd 165]	102%
CC(C)OP(=O)(OC(C)C)C(Cc1cccc(Cl)c1)c1sc2ccccc2c1Br (racemic) [Cpd 166]	102%

SMILES	% I (0.5 μM)
CC(C)OP(=O)(OC(C)C)C(Cc1ccc(Cl)c(C(F)(F)F)c1)c1sc2ccccc2c1Cl (racemic) [Cpd 167]	104%
CC(C)OP(=O)(OC(C)C)C(Cc1cccc(C(F)(F)F)c1F)c1sc2ccccc2c1Cl (racemic) [Cpd 168]	104%
CC(C)OP(=O)(OC(C)C)C(Cc1cc(F)cc(C(F)(F)F)c1)c1sc2ccccc2c1Cl (racemic) [Cpd 169]	104%
CC(C)OP(=O)(OC(C)C)C(Cc1cccc(C(F)(F)F)c1)c1sc2ccccc2c1Cl (racemic) [Cpd 170]	103%
CC(C)OP(=O)(OC(C)C)C(Cc1cc(C(F)(F)F)cc(C(F)(F)F)c1)c1sc2ccccc2c1Cl (racemic) [Cpd 171]	95%
CC(C)OP(=O)(OC(C)C)C(Cc1cc(C(F)(F)F)ccc1F)c1sc2ccccc2c1Cl (racemic) [Cpd 172]	104%
CC(C)OP(=O)(OC(C)C)C(Cc1ccccc1C(F)(F)F)c1sc2ccccc2c1Cl (racemic) [Cpd 173]	103%
CC(C)OP(=O)(OC(C)C)C(Cc1ccc(F)c(F)c1)c1sc2ncccc2c1Br (racemic) [Cpd 207]	99%
CCOP(=O)(OCC)C(Cc1ccc(F)c(F)c1)c1sc2ccccc2c1-c1ccsc1 (racemic) [Cpd 208]	104%
COCCOCCOP(=O)(OCCOCCOC)C(Cc1ccc(F)c(F)c1)c1sc2ccccc2c1Br (racemic) [Cpd 210]	62%
CC(C)CCOP(=O)(OCCC(C)C)C(Cc1ccc(F)c(F)c1)c1sc2ccccc2c1Br (racemic) [Cpd 211]	97%
CC(=O)OCCOP(=O)(OCCOC(C)=O)C(Cc1ccc(F)c(F)c1)c1sc2ccccc2c1Br (racemic) [Cpd 213]	100%
CCOP(=O)(OCC)C(Cc1ccc(F)c(F)c1)c1sc2ccccc2c1-c1ccccc1O (racemic) [Cpd 215]	101%
CCOP(=O)(OCC)C(Cc1ccc(F)c(F)c1)c1sc2ccccc2c1-c1ccccc1F (racemic) [Cpd 216]	100%
CCOP(=O)(OCC)C(Cc1ccc(F)c(F)c1)c1sc2ccccc2c1-c1cccc(C(N)=O)c1 (racemic) [Cpd 218]	79%
CCOP(=O)(OCC)C(Cc1ccc(F)c(F)c1)c1sc2ccccc2c1-c1cccc(C(=O)OC)c1 (racemic) [Cpd 219]	68%
CCOP(=O)(OCC)C(Cc1ccc(F)c(F)c1)c1sc2ccccc2c1-c1ccc(F)cc1 (racemic) [Cpd 220]	101%
CC(C)OP(=O)(OC(C)C)C(Cc1ccc(F)c(C(F)(F)F)c1)c1sc2cccc(F)c2c1Br (racemic) [Cpd 222]	103%
CCOP(=O)(OCC)C(Cc1ccc(F)c(C(F)(F)F)c1)c1sc2cccc(F)c2c1Br (racemic) [Cpd 223]	102%
CCOP(=O)(OCC)C(Cc1ccc(F)c(F)c1)c1sc2cccc(F)c2c1Br (racemic) [Cpd 224]	102%
CCOP(=O)(OCC)C(Cc1ccc(O)c(F)c1)c1sc2ccccc2c1Br (racemic) [Cpd 226]	34%
CC(C)OP(=O)(OC(C)C)C(Cc1ccc(O)c(F)c1)c1sc2ccccc2c1Br (racemic) [Cpd 227]	52%

same assay, conditions: 1 μM compound; HEK293 cells expressing canine TRPM8, icilin activation

SMILES	% I (1 μM)
CCOP(=O)(Cc1cc2ccccc2s1)OCc1ccccc1Cl (racemic) [Cpd 105]	48%
CC(C)OP(=O)(OC(C)C)C(Cc1cccc(Cl)c1)c1sc2ccccc2c1Br (racemic) [Cpd 166]	103%
CC(C)OP(=O)(OC(C)C)C(Cc1ccc(F)c(F)c1)c1oc2cccc(F)c2c1Br (racemic) [Cpd 205]	101%
CCOP(=O)(OCC)C(Cc1ccc(F)c(F)c1)c1oc2cccc(F)c2c1Br (racemic) [Cpd 206]	100%

same assay, conditions: 5 μM compound; HEK293 cells expressing canine TRPM8, icilin activation

SMILES	% I (5 μM)
CCOP(=O)(Cc1cc2ccccc2s1)OCc1ccccc1Cl (racemic) [Cpd 105]	100%

same assay, conditions: HEK293 cells expressing canine TRPM8, icilin activation; eight-point dose-response; read-out: IC50

SMILES	IC50
CCOP(=O)(Cc1cc2ccccc2s1)OCc1ccccc1Cl (racemic) [Cpd 105]	1010 nM
CCOP(=O)(OCC)C(Cc1cccc(Cl)c1F)c1sc2ccccc2c1Br (racemic) [Cpd 143]	67 nM
CCOP(=O)(OCC)C(Cc1ccc(C(F)(F)F)c(F)c1)c1sc2ccccc2c1Br (racemic) [Cpd 144]	58 nM
CCOP(=O)(OCC)C(Cc1cccc(OC(F)(F)F)c1)c1sc2ccccc2c1Br (racemic) [Cpd 145]	119 nM and 116 nM
CCOP(=O)(OCC)C(Cc1cc(C(F)(F)F)ccc1F)c1sc2ccccc2c1Br (racemic) [Cpd 146]	100 nM
CCOP(=O)(OCC)C(Cc1ccccc1Cl)c1sc2ccccc2c1Br (racemic) [Cpd 147]	125 nM
CCOP(=O)(OCC)C(Cc1cc(C(F)(F)F)ccc1Cl)c1sc2ccccc2c1Br (racemic) [Cpd 148]	172 nM
CCOP(=O)(OCC)C(Cc1ccc(OC(F)(F)F)c(Cl)c1)c1sc2ccccc2c1Br (racemic) [Cpd 149]	60 nM
CCOP(=O)(OCC)C(Cc1ccc(C(F)(F)F)cc1F)c1sc2ccccc2c1Br (racemic) [Cpd 150]	90 nM
CCOP(=O)(OCC)C(Cc1cccc(C(F)(F)F)c1Cl)c1sc2ccccc2c1Br (racemic) [Cpd 151]	120 nM
CCOP(=O)(OCC)C(Cc1ccc(OC)c(C(F)(F)F)c1)c1sc2ccccc2c1Br (racemic) [Cpd 152]	54 nM and 50 nM
CCOP(=O)(OCC)C(Cc1ccc(SC(F)(F)F)cc1)c1sc2ccccc2c1Br (racemic) [Cpd 153]	43 nM
CCOP(=O)(OCC)C(Cc1ccc(C(F)(F)F)cc1)c1sc2ccccc2c1Br (racemic) [Cpd 154]	27 nM
CCOP(=O)(OCC)C(Cc1ccc(OC)c(F)c1)c1sc2ccccc2c1Br (racemic) [Cpd 158]	59 nM
COc1ccc(CC(c2sc3ccccc3c2Br)P(=O)(OC(C)C)OC(C)C)cc1F (racemic) [Cpd 159]	36 nM
CCOP(=O)(OCC)C(Cc1c(F)c(F)c(OC)c(F)c1F)c1sc2ccccc2c1Br (racemic) [Cpd 160]	60 nM
COc1c(F)c(F)c(CC(c2sc3ccccc3c2Br)P(=O)(OC(C)C)OC(C)C)c(F)c1F (racemic) [Cpd 161]	19 nM
CCOP(=O)(OCC)C(Cc1cccc(OC)c1F)c1sc2ccccc2c1Br (racemic) [Cpd 162]	32 nM
COc1ccc(CC(c2sc3ccccc3c2Br)P(=O)(OC(C)C)OC(C)C)c(F)c1 (racemic) [Cpd 163]	20 nM
CCOP(=O)(OCC)C(Cc1cc(OC)c(Cl)cc1F)c1sc2ccccc2c1Br (racemic) [Cpd 164]	82 nM
COc1cc(CC(c2sc3ccccc3c2Br)P(=O)(OC(C)C)OC(C)C)c(F)cc1Cl (racemic) [Cpd 165]	86 nM

SMILES	IC50
CC(C)OP(=O)(OC(C)C)C(Cc1cccc(Cl)c1)c1sc2ccccc2c1Br (racemic) [Cpd 166]	18 nM and 14 nM
CC(C)OP(=O)(OC(C)C)C(Cc1ccc(Cl)c(C(F)(F)F)c1)c1sc2ccccc2c1Cl (racemic) [Cpd 167]	97 nM
CC(C)OP(=O)(OC(C)C)C(Cc1cccc(C(F)(F)F)c1F)c1sc2ccccc2c1Cl (racemic) [Cpd 168]	76 nM
CC(C)OP(=O)(OC(C)C)C(Cc1cc(F)cc(C(F)(F)F)c1)c1sc2ccccc2c1Cl (racemic) [Cpd 169]	96 nM
CC(C)OP(=O)(OC(C)C)C(Cc1cccc(C(F)(F)F)c1)c1sc2ccccc2c1Cl (racemic) [Cpd 170]	73 nM
CC(C)OP(=O)(OC(C)C)C(Cc1cc(C(F)(F)F)cc(C(F)(F)F)c1)c1sc2ccccc2c1Cl (racemic) [Cpd 171]	221 nM
CC(C)OP(=O)(OC(C)C)C(Cc1cc(C(F)(F)F)ccc1F)c1sc2ccccc2c1Cl (racemic) [Cpd 172]	105 nM
CC(C)OP(=O)(OC(C)C)C(Cc1ccccc1C(F)(F)F)c1sc2ccccc2c1Cl (racemic) [Cpd 173]	140 nM
CC(C)OP(=O)(OC(C)C)C(Cc1ccc(F)c(F)c1)c1oc2cccc(F)c2c1Br (racemic) [Cpd 205]	50 nM
CCOP(=O)(OCC)C(Cc1ccc(F)c(F)c1)c1oc2cccc(F)c2c1Br (racemic) [Cpd 206]	98 nM
CC(C)OP(=O)(OC(C)C)C(Cc1ccc(F)c(F)c1)c1sc2ncccc2c1Br (racemic) [Cpd 207]	51 nM
CCOP(=O)(OCC)C(Cc1ccc(F)c(F)c1)c1sc2ccccc2c1-c1ccsc1 (racemic) [Cpd 208]	104 nM
CC(C)CCOP(=O)(OCCC(C)C)C(Cc1ccc(F)c(F)c1)c1sc2ccccc2c1Br (racemic) [Cpd 211]	95 nM
CC(=O)OCCOP(=O)(OCCOC(C)=O)C(Cc1ccc(F)c(F)c1)c1sc2ccccc2c1Br (racemic) [Cpd 213]	202 nM
CCOP(=O)(OCC)C(Cc1ccc(F)c(F)c1)c1sc2ccccc2c1-c1ccccc1O (racemic) [Cpd 215]	85 nM
CCOP(=O)(OCC)C(Cc1ccc(F)c(F)c1)c1sc2ccccc2c1-c1ccccc1F (racemic) [Cpd 216]	126 nM
CCOP(=O)(OCC)C(Cc1ccc(F)c(F)c1)c1sc2ccccc2c1-c1cccc(C(N)=O)c1 (racemic) [Cpd 218]	483 nM
CCOP(=O)(OCC)C(Cc1ccc(F)c(F)c1)c1sc2ccccc2c1-c1ccc(F)cc1 (racemic) [Cpd 220]	207 nM
CC(C)OP(=O)(OC(C)C)C(Cc1ccc(F)c(C(F)(F)F)c1)c1sc2cccc(F)c2c1Br (racemic) [Cpd 222]	33 nM
CCOP(=O)(OCC)C(Cc1ccc(F)c(C(F)(F)F)c1)c1sc2cccc(F)c2c1Br (racemic) [Cpd 223]	52 nM
CCOP(=O)(OCC)C(Cc1ccc(F)c(F)c1)c1sc2cccc(F)c2c1Br (racemic) [Cpd 224]	44 nM
